Measurements taken from ChEMBL document CHEMBL1201862, “PubChem BioAssay data set” (2004).
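Assay format: 96-well plates, 48-hour exposure. The concentration for 50% growth inhibition is given as GI50.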 The source made the active and inactive calls. No stated cut-off is given here; in the data, active = GI50 up to about 1.1 µM and inactive = higher.

Assays:
Experiment in all cases: inhibition of tumour cell growth, NCI panel, 48 h
[1] = system: SNB-19
[2] = system: SN12C
[3] = system: CAKI-1
[4] = system: SK-MEL-5
[5] = system: HOP-62
[6] = system: OVCAR-5
[7] = system: OVCAR-4
[8] = system: SF-268
[9] = system: SW-620
[10] = system: SK-OV-3
[11] = system: HCC 2998
[12] = system: LOX IMVI
[13] = system: UACC-257
[14] = system: UACC-62
[15] = system: DU-145
[16] = system: NCI-H226
[17] = system: A549
[18] = system: RXF 393
[19] = system: NCI-H23
[20] = system: SK-MEL-28
[21] = system: K562
[22] = system: HCT-116
[23] = system: SNB-75
[24] = system: ACHN
[25] = system: M14
[26] = system: 786-0
[27] = system: SF-539
[28] = system: HCT-15
[29] = system: Malme-3M
[30] = system: SF-295
[31] = system: TK-10
[32] = system: EKVX
[33] = system: Hs-578T
[34] = system: MDA-MB-231
[35] = system: NCI-H460
[36] = system: COLO 205
[37] = system: U-251
[38] = system: RPMI-8226
[39] = system: CCRF-CEM
[40] = system: PC-3
[41] = system: IGROV-1
[42] = system: BT-549
[43] = system: A498
[44] = system: SR
[45] = system: KM12
[46] = system: OVCAR-3
[47] = system: MDA-MB-435
[48] = system: MCF7
[49] = system: OVCAR-8
[50] = system: UO-31
[51] = system: MOLT-4
[52] = system: SK-MEL-2
[53] = system: NCI/ADR-RES
[54] = system: HOP-92
[55] = system: HT-29
[56] = system: NCI-H522
[57] = system: MDA-N

With `O=C1NC(c2cccc3ccccc23)Nc2ccccc21` (stereo not given) the GI50 [1] was 39.9 nM (active), the GI50 [2] was 132 nM (active) and the GI50 [3] was < 40.9 nM (active). The GI50 [4] was < 20.2 nM (active), the GI50 [5] was 139 nM (active) and the GI50 [6] was 133 nM (active). The GI50 [7] was 9.31 nM (active), the GI50 [8] was 832 nM (active) and the GI50 [9] was 27.7 nM (active). The GI50 [10] was 36.2 nM (active), the GI50 [11] was 73.6 nM (active) and the GI50 [12] was 90.6 nM (active). For the same compound, the GI50 [13] was 46.5 nM (active), the GI50 [14] was < 18.4 nM (active) and the GI50 [15] was 64 nM (active). For the same compound, the GI50 [16] was 87.5 nM (active), the GI50 [17] was 96.8 nM (active) and the GI50 [18] was 30.2 nM (active). The GI50 [19] was 93.1 nM (active), the GI50 [20] was 127 nM (active) and the GI50 [21] was < 21.2 nM (active). The GI50 [22] was 33.6 nM (active), the GI50 [23] was 11.1 nM (active) and the GI50 [24] was 70.8 nM (active). For the same compound, the GI50 [25] was 29.8 nM (active), the GI50 [26] was 59.3 nM (active) and the GI50 [27] was 36.3 nM (active). For the same compound, the GI50 [28] was under 22.4 nM, the GI50 [29] was 46.3 nM (active) and the GI50 [30] was < 20.2 nM (active). The GI50 [31] was 157 nM (active), the GI50 [32] was 143 nM (active) and the GI50 [33] was 14.7 nM (active). The GI50 [34] was 87.3 nM (active), the GI50 [35] was 50.6 nM (active) and the GI50 [36] was 45.8 nM (active). The GI50 [37] was 33.6 nM (active), the GI50 [38] was 25.7 nM (active) and the GI50 [39] was 10 nM (active). The GI50 [40] was 42.3 nM (active), the GI50 [41] was 45.7 nM (active) and the GI50 [42] was 454 nM (active). The GI50 [43] was 26.2 nM (active), the GI50 [44] was < 15.3 nM (active) and the GI50 [45] was 39.9 nM (active). The GI50 [46] was 15 nM (active), the GI50 [47] was 15.3 nM (active) and the GI50 [48] was < 17.1 nM (active). The GI50 [49] was 105 nM (active), the GI50 [50] was 1050 nM (active) and the GI50 [51] was 52.8 nM (active). For the same compound, the GI50 [52] was 40 nM (active), the GI50 [53] was < 19.9 nM (active) and the GI50 [54] was 172 nM (active).
With `CC(C)(C)OC(=O)NCCNC(=O)OCc1ccccc1` the GI50 [1] was > 100000 nM (inactive), the GI50 [2] was > 100000 nM (inactive) and the GI50 [3] was > 100000 nM (inactive). The GI50 [4] was 50600 nM (inactive), the GI50 [5] was > 100000 nM (inactive) and the GI50 [6] was > 100000 nM (inactive). The GI50 [8] was > 100000 nM (inactive), the GI50 [9] was > 100000 nM (inactive) and the GI50 [10] was > 100000 nM (inactive). The GI50 [11] was > 100000 nM (inactive), the GI50 [13] was > 100000 nM (inactive) and the GI50 [14] was > 100000 nM (inactive). For the same compound, the GI50 [15] was > 100000 nM (inactive), the GI50 [16] was > 100000 nM (inactive) and the GI50 [17] was > 100000 nM (inactive). For the same compound, the GI50 [18] was > 100000 nM (inactive), the GI50 [19] was > 100000 nM (inactive) and the GI50 [20] was > 100000 nM (inactive). For the same compound, the GI50 [21] was 85900 nM (inactive), the GI50 [23] was > 100000 nM (inactive) and the GI50 [24] was > 100000 nM (inactive). The GI50 [25] was > 100000 nM (inactive), the GI50 [55] was > 100000 nM (inactive) and the GI50 [56] was > 100000 nM (inactive). The GI50 [26] was > 100000 nM (inactive), the GI50 [27] was > 100000 nM (inactive) and the GI50 [28] was over 100000 nM. The GI50 [29] was > 100000 nM (inactive), the GI50 [30] was > 100000 nM (inactive) and the GI50 [31] was > 100000 nM (inactive). For the same compound, the GI50 [32] was > 100000 nM (inactive), the GI50 [33] was > 100000 nM (inactive) and the GI50 [35] was > 100000 nM (inactive). For the same compound, the GI50 [36] was > 100000 nM (inactive), the GI50 [37] was > 100000 nM (inactive) and the GI50 [38] was > 100000 nM (inactive). For the same compound, the GI50 [40] was > 100000 nM (inactive), the GI50 [57] was > 100000 nM (inactive) and the GI50 [41] was > 100000 nM (inactive). For the same compound, the GI50 [42] was > 100000 nM (inactive), the GI50 [44] was > 100000 nM (inactive) and the GI50 [45] was > 100000 nM (inactive). For the same compound, the GI50 [46] was > 100000 nM (inactive), the GI50 [47] was > 100000 nM (inactive) and the GI50 [48] was > 100000 nM (inactive). For the same compound, the GI50 [49] was > 100000 nM (inactive), the GI50 [50] was > 100000 nM (inactive) and the GI50 [51] was > 100000 nM (inactive). The GI50 [52] was > 100000 nM (inactive), the GI50 [53] was > 100000 nM (inactive) and the GI50 [54] was > 100000 nM (inactive).
